The values below come from patent publication US20250241313A1, “APPLICATION OF ACTIVE SUBSTANCE IN IMPROVING SEED VIGOR AND METHOD FOR IMPROVING SEED VIGOR” (HUNAN HYBRID RICE RESEARCH CENTER, priority 2024, published 2025).

What all share (format): in vivo
One test deals with tobacco seeds. Put plainly: Tobacco seed germination (seed vigor) after seed soaking. As to conditions: for Average germination index / average germination potential / Average germination rate: tobacco seeds soaked 24 hours in 0.3 mM aqueous solution; for average germination potential: first 5 days; for Average germination rate: within 7 days. The method, then:
(§1) In the following examples, the relative activity index is calculated by the following formula: • (1) average germination rate: ×100% (total number of germinated seeds/total number of tested seeds within 7 days); • (2) average germination potential: ×100% (total number of germinated seeds/total number of tested seeds in the first 5 days); • (3) average germination index: Σ(number of sprouts per day/[…]); • (4) statistical P-value: generally, X represents the statistical quantity of the test, and when H0 is true, the value C of the statistical quantity can be calculated from the sample data, and the P value can be obtained from the specific distribution of the test statistical quantity X. Specifically, the P value of the left test is the probability that the test statistic X is smaller than the sample statistic C, i.e.: P=P {X<C} the P value for the right-side test is the probability that the test statistic X is greater than the sample statistic C: P=P {X>C} the P value of the two-sided test is 2 times the probability that the test statistic X falls within the tail region where the sample statistic C is an endpoint: P=2P {X>C} (when C is located at the right end of the distribution curve) or P=2P {X<C} (when C is located at the left end of the distribution curve) if X obeys a normal distribution and a t-distribution, the distribution curve is symmetric about the vertical axis, so its P value can be represented as P=P {|X|>C}; • after the P-value has been calculated, a test can be concluded by comparing a given significance level a to the P-value: rejecting the original hypothesis if a>P value; if a≤P value, the original assumption is accepted at significance level a. […]

A further test deals with wheat seeds. In words: Wheat seed germination (seed vigor) after seed soaking. As to conditions: for Average germination index / average germination potential / Average germination rate: wheat seeds soaked 24 hours in 0.3 mM aqueous solution; for average germination potential: first 5 days; for Average germination rate: within 7 days. The protocol:
as §1

In a further test the test system is corn seeds. Put plainly: Corn seed germination (seed vigor) after seed soaking. As to conditions: for Average germination index / average germination potential / Average germination rate: corn seeds soaked 24 hours in 0.3 mM aqueous solution; for average germination potential: first 5 days; for Average germination rate: within 7 days. The protocol: as §1
For the next test, the system named is rice seeds. Put plainly: Rice seed germination (seed vigor) after seed soaking. The method, then: as §1
The test system of another test is tomato seeds. In words: Tomato seed germination (seed vigor) after seed soaking. As to conditions: for Average germination index / average germination potential / Average germination rate: tomato seeds soaked 24 hours in 0.3 mM aqueous solution; for average germination potential: first 5 days; for Average germination rate: within 7 days. The protocol: as §1
Setting [1] is: rice seeds soaked 24 hours in 0.3 mM aqueous solution.
Where [2] appears, read: rice seeds soaked 24 hours in 0.3 mM aqueous solution, germinated in the first 5 days.
[3] abbreviates: rice seeds soaked 24 hours in 0.3 mM aqueous solution, germinated within 7 days, 3 parallel groups.

Consider `C=C(OP(=O)(O)O)C(=O)O` [PEP, phosphoenolpyruvate], for which the Average germination index in the test with tobacco seeds was 12.78; in the test on wheat seeds, 6.367; with corn seeds, 14.2 ^; in the test with rice seeds (setting [1]), 11.04; in the test with rice seeds (rice seeds, 0.09 mM aqueous solution), 8.43; in the test on rice seeds (rice seeds, 0.2 mM aqueous solution) it was 11.04. Also, in the test on tomato seeds, the Average germination index is reported as 9.783. Besides, the average germination potential with tobacco seeds turned out to be 64%; in the test on wheat seeds it was 24%; in the test on corn seeds it was 70%; in the test on rice seeds (setting [2]) it was 66%; with rice seeds (rice seeds, 0.09 mM aqueous solution, first 5 days), 61%; with rice seeds (rice seeds, 0.2 mM aqueous solution, first 5 days), 66%. For the same compound, in the test with tomato seeds, the average germination potential amounted to 59%. The Average germination rate in the test with tobacco seeds was 70%; in the test on wheat seeds it was 24%; in the test with corn seeds, 68%; in the test on rice seeds (setting [3]), 72%; in the test with rice seeds (rice seeds, 0.09 mM aqueous solution, within 7 days), 63%; in the test with rice seeds (rice seeds, 0.2 mM aqueous solution, within 7 days) it was 72%. For the same compound, the Average germination rate with tomato seeds worked out at 60%. The “germination condition and root system growth versus water control (FIG. 9)” value with tobacco seeds (tobacco seeds, 0.3 mM, day 7) is on record as “the root system growth of the tobacco seeds can be accelerated”. For the same compound, the “germination condition and root growth versus water control (FIG. 4-5)” value in the test on wheat seeds (wheat seeds, 0.3 mM, day 7) was “the root growth of the wheat seeds can be accelerated”. Also, the “germination condition and root growth versus water control (FIG. 6-7)” value in the test on corn seeds (corn seeds, 0.3 mM, day 7) was “the root growth of the corn seeds can be accelerated”. Moreover, the “germination condition and root system / leaf growth versus water control (FIG. 1-3)” value in the test on rice seeds (rice seeds, 0.3 mM, day 4 and day 7) is “significantly accelerate the growth of the root system and leaf of rice seeds”. In the test with tomato seeds (tomato seeds, 0.3 mM, day 7), the “germination condition and root system growth versus water control (FIG. 8)” value was “the root system growth of the tomato seeds can be accelerated”.

Turning to `C=C(OP(=O)([O-])O)C(=O)O.[K+]` [PEP-K salt, potassium phosphoenolpyruvate], the Average germination index in the test on tobacco seeds was 11.83; in the test with wheat seeds, 6.333; in the test on corn seeds it was 14.5 ^; with rice seeds (setting [1]), 10.76; with rice seeds (rice seeds, 0.5 mM aqueous solution), 10.76; in the test on tomato seeds, 10.73. The average germination potential in the test with tobacco seeds turned out to be 64%; in the test with wheat seeds it was 21%; in the test on corn seeds, 70%; in the test with rice seeds (setting [2]), 64%; in the test with rice seeds (rice seeds, 0.5 mM aqueous solution, first 5 days), 64%; in the test with tomato seeds, 64%. Also, the Average germination rate with tobacco seeds is listed as 66%; in the test with wheat seeds it was 22%; in the test with corn seeds it was 68%; in the test on rice seeds (setting [3]) it was 68%; in the test on rice seeds (rice seeds, 0.5 mM aqueous solution, within 7 days), 68%; in the test with tomato seeds, 65%.

Consider `C=C(OP(=O)(O)O)C(=O)O.NC1CCCCC1` [PEP-cyclohexylammonium salt, cyclohexylammonium phosphoenolpyruvate], for which the Average germination index is reported as 10.53 in the test on tobacco seeds; 5.067 in the test with wheat seeds; 10.25 ^ in the test on corn seeds; 10.82 in the test with rice seeds (setting [1]); 9.82 with rice seeds (rice seeds, 1.1 mM aqueous solution); 10.23 in the test on tomato seeds. For the same compound, the average germination potential in the test on tobacco seeds was 65%; in the test with wheat seeds, 19%; in the test with corn seeds, 60%; in the test on rice seeds (setting [2]), 66%; in the test on rice seeds (rice seeds, 1.1 mM aqueous solution, first 5 days), 64%; in the test with tomato seeds it was 65%. In addition, the Average germination rate is recorded as 68% with tobacco seeds; 21% in the test on wheat seeds; 58% in the test with corn seeds; 70% in the test with rice seeds (setting [3]); 62% with rice seeds (rice seeds, 1.1 mM aqueous solution, within 7 days); 66% in the test with tomato seeds.
